These results are taken from article PMC8620910, “Design and Synthesis of (2-oxo-1,2-Dihydroquinolin-4-yl)-1,2,3-triazole Derivatives via Click Reaction: Potential Apoptotic Antiproliferative Agents” (Molecules, 2021).

The test system of data set [1] is epithelial cancer cell line (A-549). Description: Anti-proliferative propidium iodide fluorescence assay, A-549. The following applies: Homo sapiens, A549; read-out: Anti-Proliferative Activity IC50 ± SEM, A-549. The class given is cell-based. On the procedure:
(§1) Tested 8a–l compounds were assessed for their anti-proliferative activity against four human cancer cell lines, including the pancreatic cancer cell line (Panc-1), breast cancer cell line (MCF-7), colon cancer cell line (HT-29), and epithelial cancer cell line (A-549) using propidium iodide fluorescence assay and the reference doxorubicin. Results (IC50) are illustrated in Table 3.
(§2) To explore the anti-proliferative potential of compounds, propidium iodide fluorescence assay was performed using different cell lines such as Panc-1 (pancreas cancer cell line), MCF-7 (breast cancer cell line), HT-29 (colon cancer cell line), and A-549 (epithelial cancer cell line), respectively. To calculate the total nuclear DNA, a fluorescent dye (propidium iodide, PI) is used to attach to the DNA, thus offering a quick and precise technique. PI cannot pass through the cell membrane, and its signal intensity can be considered as directly proportional to the quantity of cellular DNA. Cells whose cell membranes are damaged or have changed permeability are counted as dead ones. The assay was performed by seeding the cells of different cell lines at a density of 3000–7500 cells/well (in 200 μL medium) in culture plates followed by incubation for 24 h at 37 °C in humidified 5%CO2/95% air atmospheric conditions. The medium was removed; the compounds were added to the plates at 10 μM concentrations (in 0.1% DMSO) in triplicates, followed by incubation for 48h. DMSO (0.1%) was used as a control. After incubation, the medium was removed, followed by the addition of PI (25 μL, 50 μg/mL in water/medium) to each well of the plates. At −80 °C, the plates were allowed to freeze for 24 h, followed by thawing at 25 °C. A fluorometer (Polar-Star BMG Tech, Beijing, China) was used to record the readings at excitation and emission wavelengths of 530 and 620 nm for each well. The percentage cytotoxicity of compounds was calculated using the following formula: % Cytotoxicity=AC−ATC/AC×100 where ATC = absorbance of treated cells and AC = absorbance of control. Doxorubicin was used as a positive control in the assay.

Data set [2] is described as follows: Cell viability assay (MTT) on MCF-10A. The class given is cell-based. The following applies: human, MCF-10A mammary epithelial cells, four days. The method, then: A human mammary gland epithelial cell line was used in the cell viability assay (MCF-10A). MCF-10A cells were incubated with compounds 8a–l for four days, and cell viability was determined using an MTT assay.
An MTT assay was performed to investigate the effect of the synthesized compounds on mammary epithelial cells (MCF-10A) at a concentration of 50 µM for the tested compound. The cells were propagated in a medium consisting of Ham’s F-12 medium/Dulbecco’s modified Eagle’s medium (DMEM) (1:1) supplemented with 10% fetal calf serum, 2 mM glutamine, insulin (10 μg/mL), hydrocortisone (500 ng/mL), and epidermal growth factor (20 ng/mL). Trypsin ethylenediamine tetra acetic acid (EDTA) was used to pass the cells every 2–3 days. Ninety-six-well flat-bottomed cell culture plates were used to seed the cells at a density of 10^4 cells mL^−1. The medium was aspirated from all the wells of culture plates after 24 h followed by the addition of synthesized compounds (in 200 μL medium to yield a final concentration of 0.1% (v/v) dimethylsulfoxide) into individual wells of the plates. Four wells were designated to a single compound. The plates were allowed to incubate at 37 °C for 96 h. Afterward, the medium was aspirated, and 3-[4,5-dimethylthiazol-2-yl]-2,5-diphenyltetrazolium bromide (MTT) (0.4 mg/mL) in the medium was added to each well and subsequently incubated for 3 h. The medium was aspirated, and 150 μL dimethyl sulfoxide (DMSO) was added to each well. The plates were vortexed, followed by the measurement of absorbance at 540 nm on a microplate reader. The results were presented as inhibition (%) of proliferation compared to controls comprising 0.1% DMSO.

In data set [3] the test system is breast cancer cell line (MCF-7). Description: Anti-proliferative propidium iodide fluorescence assay, MCF-7. It counts as cell-based. The following applies: Homo sapiens, MCF7; read-out: Anti-Proliferative Activity IC50 ± SEM, MCF-7. On the procedure: as §1, §2
Data set [4] deals with colon cancer cell line (HT-29). In words: Anti-proliferative propidium iodide fluorescence assay, HT-29. It counts as cell-based. The following applies: Homo sapiens, read-out: Anti-Proliferative Activity IC50 ± SEM, HT-29. The method, then:
as §1, §2

The test system of data set [5] is A-549, MCF-7, Panc-1 and HT-29 cell lines. Description: Average anti-proliferative IC50 over the four cancer cell lines. It counts as cell-based, human. The following applies: for IC50: Homo sapiens, average of A-549, MCF-7, Panc-1, HT-29; for fold decrease in activity relative to 8c: from average IC50. The method, then:
Tested 8a–l compounds were assessed for their anti-proliferative activity against four human cancer cell lines, including the pancreatic cancer cell line (Panc-1), breast cancer cell line (MCF-7), colon cancer cell line (HT-29), and epithelial cancer cell line (A-549) using propidium iodide fluorescence assay and the reference doxorubicin.
as §2

The test system of data set [6] is pancreatic cancer cell line (Panc-1). In words: Anti-proliferative propidium iodide fluorescence assay, Panc-1. It counts as cell-based. The following applies: Homo sapiens, read-out: Anti-Proliferative Activity IC50 ± SEM, Panc-1. On the procedure:
as §1, §2

In data set [7] the test system is active Caspase 3. In words: Caspase 3 activation assay in MCF-7.
Method: All reagents were allowed to reach room temperature before use. All liquid reagents were gently mixed before use. The number of 8-well strips needed for the assay was determined. These were inserted into the frame(s) for current use. A total of 100 μL of the Standard Diluent Buffer was added to the zero standard wells. Well(s) reserved for chromogen blank were left empty. A total of 100 μL of standards and controls or diluted samples was added to the appropriate microtiter wells. The sample dilution chosen was optimized for each experimental system. The side of the plate was gently tapped on to mix. Wells were covered with a plate cover and incubated for 2 h at room temperature. […]
The working dilution was prepared as described in Preparing IgG HRP. […] The incubation time for chromogen substrate was determined by the microtiter plate reader used.
Many plate readers have the capacity to record a maximum optical density (O.D.) of 2.0. The O.D. values were monitored, and the substrate reaction was stopped before the O.D. of the positive wells exceeds the limits of the instrument. The O.D. values at 450 nm could only be read after the Stop Solution had been added to each well. […] The absorbance of each well was read at 450 nm, having blanked the plate reader against a chromogen blank composed of 100 μL each of Stabilized Chromogen and Stop Solution. […]

On to `O=c1cc(-n2cc(COc3ccc(C(c4c(O)c5ccccc5[nH]c4=O)c4c(O)c5ccccc5[nH]c4=O)cc3)nn2)c2ccccc2[nH]1` [Compound 8a, 3,3’-((4-((1-(2-oxo-1,2-dihydroquinolin-4-yl)-1H-1,2,3-triazol-4-yl)methoxy)phenyl)-methylene)bis(4-hydroxyquinolin-2(1H)-one)], for which the IC50 was 5.7 ± 0.4 µM in data set [1]; 5.3 ± 0.8 µM in data set [3]; 5.7 ± 0.4 µM in data set [4]; 5.58 µM in data set [5]; 5.6 ± 0.6 µM in data set [6]. The viability at 96 h, 50 µM in data set [2] is 89%. The “fold decrease in activity relative to 8c” value in data set [5] came to 1.5 fold.

Turning to `Cc1ccc2[nH]c(=O)cc(-n3cc(COc4ccc(C(c5c(O)c6ccccc6[nH]c5=O)c5c(O)c6ccccc6[nH]c5=O)cc4)nn3)c2c1` [Compound 8b, 3,3’-((4-((1-(6-Methyl-2-oxo-1,2-dihydroquinolin-4-yl)-1H-1,2,3-triazol-4-yl)methoxy)phenyl)methylene)bis(4-hydroxyquinolin-2(1H)-one)], the IC50 amounted to 7.6 ± 0.8 µM in data set [1]; 6.9 ± 0.8 µM in data set [3]; 7.5 ± 0.4 µM in data set [4]; 7.4 µM in data set [5]; 7.6 ± 0.6 µM in data set [6]. In data set [2], this molecule displayed a viability at 96 h, 50 µM of 87%. In data set [5], the “fold decrease in activity relative to 8c” value was 2 fold.

Turning to `COc1ccc2[nH]c(=O)cc(-n3cc(COc4ccc(C(c5c(O)c6ccccc6[nH]c5=O)c5c(O)c6ccccc6[nH]c5=O)cc4)nn3)c2c1` [Compound 8c, 3,3’-((4-((1-(6-Methoxy-2-oxo-1,2-dihydroquinolin-4-yl)-1H-1,2,3-triazol-4-yl)methoxy)phenyl)methylene)bis(4-hydroxyquinolin-2(1H)-one)], the IC50 was 3.9 ± 0.5 µM in data set [1]; 3.2 ± 0.08 µM in data set [3]; 4.2 ± 0.2 µM in data set [4]; 3.85 µM in data set [5]; 4.1 ± 0.2 µM in data set [6]. Further, the viability at 96 h, 50 µM in data set [2] is 91%.

`Cn1c(=O)cc(-n2cc(COc3ccc(C(c4c(O)c5ccccc5[nH]c4=O)c4c(O)c5ccccc5[nH]c4=O)cc3)nn2)c2ccccc21` [Compound 8d, 3,3’-((4-((1-(1-Methly-2-oxo-1,2-dihydroquinolin-4-yl)-1H-1,2,3-triazol-4-yl)methoxy)phenyl)methylene)bis(4-hydroxyquinolin-2(1H)-one)]: the IC50 in data set [1] is 12.9 ± 0.8 µM; in data set [3], 11.5 ± 1.1 µM; in data set [4], 11.4 ± 1.2 µM; in data set [5] it was 11.8 µM; in data set [6] it was 11.6 ± 0.8 µM. The same molecule came in with a viability at 96 h, 50 µM in data set [2] of 89%.

As for `COc1ccc2[nH]c(=O)c(C(c3ccc(OCc4cn(-c5cc(=O)[nH]c6ccc(C)cc56)nn4)cc3)c3c(O)c4cc(OC)ccc4[nH]c3=O)c(O)c2c1` [Compound 8f, 3,3’-((4-((1-(6-Methyl-2-oxo-1,2-dihydroquinolin-4-yl)-1H-1,2,3-triazol-4-yl)methoxy)phenyl)methylene)bis(4-hydroxy-6-methoxyquinolin-2(1H)-one)], the IC50 in data set [1] was found to be 2.9 ± 0.5 µM; in data set [3], 2.6 ± 0.8 µM; in data set [4], 3.4 ± 0.2 µM; in data set [5], 3 µM; in data set [6] it was 3.1 ± 0.2 µM. Besides, the viability at 96 h, 50 µM in data set [2] was 87%. Besides, the “Caspase 3 Conc” value in data set [7] (MCF-7) was 365.60 ± 3.20 pg/mL. Also, the “Caspase 3 Fold Change” value in data set [7] (MCF-7, versus untreated control) worked out at 5.57 fold.

For `COc1ccc2[nH]c(=O)c(C(c3ccc(OCc4cn(-c5cc(=O)n(C)c6ccccc56)nn4)cc3)c3c(O)c4cc(OC)ccc4[nH]c3=O)c(O)c2c1` [Compound 8h, 3,3’-((4-((1-(1-Methly-2-oxo-1,2-dihydroquinolin-4-yl)-1H-1,2,3-triazol-4-yl)methoxy)phenyl)methylene)bis(4-hydroxy-6-methoxyquinolin-2(1H)-one)], the IC50 is 10.7 ± 2.5 µM in data set [1]; 10.6 ± 2.9 µM in data set [3]; 10.8 ± 1.6 µM in data set [4]; 10.7 µM in data set [5]; 10.8 ± 1.9 µM in data set [6]. In addition, in data set [2], the viability at 96 h, 50 µM was 90%.

As to `Cn1c(=O)c(C(c2ccc(OCc3cn(-c4cc(=O)[nH]c5ccccc45)nn3)cc2)c2c(O)c3ccccc3n(C)c2=O)c(O)c2ccccc21` [Compound 8i, 3,3’-((4-((1-(2-oxo-1,2-dihydroquinolin-4-yl)-1H-1,2,3-triazol-4-yl)methoxy)phenyl)-methylene)bis(4-hydroxy-1-methylquinolin-2(1H)-one)], the IC50 in data set [1] worked out at 17.9 ± 0.3 µM; in data set [3], 17.8 ± 1.6 µM; in data set [4], 17.9 ± 1.1 µM; in data set [5], 17.8 µM; in data set [6], 17.6 ± 1.5 µM. The molecule further returned a viability at 96 h, 50 µM in data set [2] of 90%.

As for `Cc1ccc2[nH]c(=O)cc(-n3cc(COc4ccc(C(c5c(O)c6ccccc6n(C)c5=O)c5c(O)c6ccccc6n(C)c5=O)cc4)nn3)c2c1` [Compound 8j, 3,3’-((4-((1-(6-Methyl-2-oxo-1,2-dihydroquinolin-4-yl)-1H-1,2,3-triazol-4-yl)methoxy)phenyl)methylene)bis(4-hydroxy-1-methylquinolin-2(1H)-one)], the IC50 in data set [1] is 22.5 ± 0.2 µM; in data set [3], 22.1 ± 0.1 µM; in data set [4], 22.9 ± 0.6 µM; in data set [5], 22.5 µM; in data set [6] it was 22.4 ± 0.2 µM. Moreover, the viability at 96 h, 50 µM in data set [2] is 81%.

`COc1ccc2[nH]c(=O)cc(-n3cc(COc4ccc(C(c5c(O)c6ccccc6n(C)c5=O)c5c(O)c6ccccc6n(C)c5=O)cc4)nn3)c2c1` [Compound 8k]: the half-maximal inhibitory concentration (IC50) in data set [1] worked out at 14.5 ± 2.6 µM; in data set [3], 13.6 ± 2.2 µM; in data set [4], 14.8 ± 1.4 µM; in data set [5] it was 14.4 µM; in data set [6], 14.6 ± 2.9 µM. In data set [2], this molecule came in with a viability at 96 h, 50 µM of 90%.

Consider `Cn1c(=O)cc(-n2cc(COc3ccc(C(c4c(O)c5ccccc5n(C)c4=O)c4c(O)c5ccccc5n(C)c4=O)cc3)nn2)c2ccccc21` [Compound 8l, 3,3’-((4-((1-(1-Methyl-2-oxo-1,2-dihydroquinolin-4-yl)-1H-1,2,3-triazol-4-yl)methoxy)phenyl)methylene)bis(4-hydroxy-1-methylquinolin-2(1H)-one)], for which the IC50 in data set [1] amounted to 25.3 ± 2.5 µM; in data set [3], 24.9 ± 1.8 µM; in data set [4], 24.2 ± 1.4 µM; in data set [5], 24.7 µM; in data set [6], 24.5 ± 2.3 µM. This molecule also registered a viability at 96 h, 50 µM in data set [2] of 96%. Further, the “fold reduction of the average IC50 value relative to 8a” value in data set [5] (replacement of NH by N-CH3) is “at least 4 fold”.

In general, IC50 refers to the concentration at which inhibition is half-maximal. For orientation: viability means the share of living cells, or the viability signal relative to a control. Higher therefore signals better survival.
